This note sets out measurements from patent US7402399B2, “Receptor tyrosine kinase signaling pathway analysis for diagnosis and therapy” (Monogram BioSciences, Inc., priority 2003, dated 2008).

For one data set, the target named is T1, Her2-Her3 heterodimers (Homo sapiens, UniProt P04626+P21860).
T1 construct: endogenous in cells; host or cells: MCF-7
The data set is described as follows: eTag assay of cell lysates for Her2-Her3 heterodimers after ligand stimulation. The data set is classed as cell-based. The conditions noted are these: MCF-7 cells, increasing ligand concentrations (0-100 nM), 10 minutes at 37° C. Here is the method: Measurements are made using three binding compounds and a cleaving probe as described below.
• 1. Serum-starve breast cancer cell line culture overnight before use. • 2. […] Aspirate culture media, transfer onto ice, and add lysis buffer to lyse cells in situ. • 4. Scrape and transfer lysate to microfuge tube. Incubate on ice for 30 min. Microfuge at 14,000 rpm, 4° C., for 10 min. (Centrifugation is optional.) • 5. Collect supernatants as lysates and aliquot for storage at −80° C. until use. Assay: Assay design: As illustrated diagrammatically in FIG. 4A, Her2-Her3 heterodimers (900) are quantified ratiometrically based on the binding of cleaving probe (902) and binding compounds (904), (906), and (908). A photosensitizer indicated by “PS” is attached to cleaving probe (902) via an avidin-biotin linkage, and binding compounds (904), (906), and (908) are labeled with molecular tags Pro4, Pro10, and Pro 11, respectively. Binding compound (904) is specific for a phosphorylation site on Her3. The total assay volume is 40 ul. The lysate volume is adjusted to 30 ul with lysis buffer. […]
Data Analysis: • 3. Normalize relative fluorescence units (RFU) signal of each molecular tag against CE reference standard A315 (a fluorescein-derivatized deoxyadenosine monophosphate that has known peak position relative to molecular tags from the assay upon electrophoretic separation). • 4. […]

The subject of a further data set is Her1 phosphorylation. The data set is described as follows: eTag assay of cell lysates for Her1 receptor phosphorylation. The conditions noted are these: BT-20 cells, increasing EGF concentration. The format is cell-based, human. Here is the method: Sample preparation was carried out essentially as described in Example 2.
Assay design: A monoclonal antibody specific to the receptor is separately conjugated with either a molecular tag or biotin (that is then linked to a photosensitizer via an avidin bridge), so that the cleaving probe and a binding compound compete to bind to the same epitope in this example. Another binding compound is used that consists of a second anibody recognizing an […] epitope on the receptor, so that a ratiometric signal can be generated as a measure of homodimerization. The signal derived from the second antibody also provides a measure of the total amount of receptor in a sample. The total amount of receptor is determined in a separate assay well. Receptor phosphorylation can be quantified together with either homodimerization or total receptor amount.
Procedure: The assay volume is 40 ul and the general procedure is similar to that of Example 2. Two assay wells, A and B, are set up for each sample to quantify homodimerization and total amount of receptor separately. […]

The test system of data set [1] is intracellular phosphorylated tyrosine (Her receptor phosphorylation). The data set is described as follows: eTag assay of formalin fixed paraffin embedded cell pellets for receptor phosphorylation. The data set is classed as cell-based, human. The conditions noted are these: 100 nM EGF vs non-stimulated. Here is the method: In this example, model fixed tissues made from pelleted cell lines were assayed for the presence of Her receptor dimers. The assay design for heterodimers was essentially the same as that described in FIG. 4A, with exceptions as noted below. That is, four components are employed: (i) a cleaving probe comprising a biotinylated monoclonal antibody conjugated to a cleavage-inducing moiety (in this example, a photosensitizer-derivatized streptavidin, as illustrated in FIG. 3E) and specific for one of the receptors of the dimer, (ii) a monoclonal antibody derivatized with a first molecular tag and specific for the same receptor as the cleaving probe, (iii) a monoclonal antibody derivatized with a second molecular tag and specific for the receptor opposite to that the cleaving probe is specific for, and (iv) a monoclonal antibody derivatized with a third molecular tag and specific for an intracellular phosphorylated tyrosine. The assay design for homodimers was essentially the same as that described in FIG. 1D, with exceptions as noted below.
In each case, model fixed tissues were prepared as follows: cells grown on tissue culture plates were stimulated with either EGF or HRG as described in the prior examples, after which they were washed and removed by scrapping. […]

Consider “EGF: epidermal growth factor, ligand used to stimulate cell lines”, for which the “quantity of Her2-Her3 heterodimers” value in the data set with Her2-Her3 heterodimers is “essentially no change”. The “quantity of Her1 phosphorylation” value in the data set on Her1 phosphorylation is “increases”. Also, the Her receptor phosphorylation result in data set [1] (fixed pellets of 22Rv1 cells) is “up-regulation”. In addition, the intracellular phosphorylation entry in data set [1] (fixed pellets of MDA-MB468 cells) is given as “increases”.
